# Measured values taken from ChEMBL document CHEMBL5726766, “Sulfonamide compounds as voltage-gated sodium channel modulators” (2019).
# Assay: (§1) Membrane potential dye assay: HEK-293 cells overexpressing the channel of interest were seeded in a 96-well plate at a density of 30000 cells/well and incubated at 37° C./5% CO2 for 48 hr. The assay was carried out using the Red Membrane Potential Dye (Molecular Devices) following the manufacturer's instructions. Briefly, the cells were incubated with 1× red membrane potential dye for 1.5 hour. The cells were then treated with various concentrations of the test compounds for 15-20 min followed by depolarization with 10-30 μM Veratridine. The fluorescence was read following excitation at 510-545 nm and emission at 565-625 nm in FLIPR. The “max-min” fluorescence values were used to calculate the % inhibition.
# Settings: HEK293
row,Structure (SMILES),IC50 [µM]
1,O=S(=O)(Nc1ncccn1)c1ccc2c(c1)OCC[C@H]2c1ccc(C(F)(F)F)cc1O[C@H]1CCOC1,0.149
2,O=S(=O)(Nc1cccc(F)n1)c1ccc2c(c1)OCC[C@@H]2c1ccc(C(F)(F)F)cc1O[C@H]1CCOC1,0.0009
3,O=S(=O)(Nc1ncccn1)c1ccc2c(c1)OCC[C@@H]2c1ccc(C(F)(F)F)cc1O[C@@H]1CCOC1,1.02
4,O=S(=O)(Nc1cccc(F)n1)c1ccc2c(c1)OCC[C@H]2c1ccc(C(F)(F)F)cc1O[C@H]1CCOC1,0.831
5,O=S(=O)(Nc1ncc(F)cn1)c1ccc2c(c1)OCC[C@@H]2c1ccc(C(F)(F)F)cc1-c1nccs1,0.011
6,Cc1nc(-c2cc(C(F)(F)F)ccc2[C@@H]2CCOc3cc(S(=O)(=O)Nc4ncc(F)cn4)ccc32)cs1,0.016
7,O=S(=O)(Nc1ncccn1)c1ccc2c(c1)OCC[C@@H]2c1ccc(C(F)(F)F)cc1O[C@H]1CCOC1,0.038
8,O=S(=O)(Nc1ncccn1)c1ccc2c(c1)OCC[C@H]2c1ccc(C(F)(F)F)cc1O[C@@H]1CCOC1,0.083
9,Cc1nc(-c2cc(C(F)(F)F)ccc2[C@H]2CCOc3cc(S(=O)(=O)Nc4ncc(F)cn4)ccc32)cs1,0.008
10,O=S(=O)(Nc1ncccn1)c1ccc2c(c1)OCC[C@H]2c1ccc(C(F)(F)F)cc1OCCCF,> 10
11,O=S(=O)(Nc1ncc(F)cn1)c1ccc2c(c1)OCC[C@H]2c1ccc(C(F)(F)F)cc1-c1nccs1,1.12

# Assay: as §1
# Settings: HEK293
row,Structure (SMILES),IC50 [µM]
1,O=S1(=O)CCN(c2cc(C(F)(F)F)ccc2[C@H]2CCOc3cc(S(=O)(=O)Nc4ncccn4)ccc32)CC1,> 10
2,O=C(O)c1ccc(-c2cc(C(F)(F)F)ccc2[C@H]2CCOc3cc(S(=O)(=O)Nc4ncc(F)cn4)ccc32)cc1,> 10
3,CCCc1cc(C(F)(F)F)ccc1[C@@H]1CCOc2cc(S(=O)(=O)Nc3ncc(F)cn3)ccc21,> 10
4,O=S(=O)(Nc1ncccn1)c1ccc2c(c1)OCC[C@H]2c1ccc(C(F)(F)F)cc1O[C@H]1CCOC1,> 10
5,O=S(=O)(Nc1ncccn1)c1ccc2c(c1)OCC[C@@H]2c1ccc(C(F)(F)F)cc1O[C@@H]1CCOC1,> 10
6,O=S(=O)(Nc1cccc(F)n1)c1ccc2c(c1)OCC[C@H]2c1ccc(C(F)(F)F)cc1O[C@H]1CCOC1,> 10
7,O=C1COCCN1c1cc(C(F)(F)F)ccc1[C@H]1CCOc2cc(S(=O)(=O)Nc3ncccn3)ccc21,> 10
8,O=S(=O)(Nc1cccc(F)n1)c1ccc2c(c1)OCC[C@H]2c1ccc(C(F)(F)F)cc1OC1CCOCC1,3.65
9,COc1cc(C(F)(F)F)ccc1[C@@H]1CCOc2cc(S(=O)(=O)Nc3cccc(F)n3)ccc21,> 10
10,O=S(=O)(Nc1ncc(F)cn1)c1ccc2c(c1)OCC[C@@H]2c1ccc(C(F)(F)F)cc1-c1nccs1,> 10
11,CCCc1cc(C(F)(F)F)ccc1[C@H]1CCOc2cc(S(=O)(=O)Nc3ncc(F)cn3)ccc21,> 10
12,O=S1(=O)CCN(c2cc(C(F)(F)F)ccc2[C@@H]2CCOc3cc(S(=O)(=O)Nc4ncccn4)ccc32)CC1,> 10
13,Cc1nc(-c2cc(C(F)(F)F)ccc2[C@@H]2CCOc3cc(S(=O)(=O)Nc4ncc(F)cn4)ccc32)cs1,> 10
14,O=S(=O)(Nc1ncccn1)c1ccc2c(c1)OCC[C@H]2c1ccc(C(F)(F)F)cc1OC1CCOCC1,> 10
15,O=S(=O)(Nc1ncccn1)c1ccc2c(c1)OCC[C@H]2c1ccc(C(F)(F)F)cc1-c1ccc(F)cn1,> 10
16,O=S(=O)(Nc1cccnn1)c1ccc2c(c1)OCC[C@H]2c1ccc(C(F)(F)F)cc1OC1CCOCC1,> 10
17,COCCCCc1cc(C(F)(F)F)ccc1[C@@H]1CCOc2cc(S(=O)(=O)Nc3ncccn3)ccc21,> 10
18,CCCc1cc(C(F)(F)F)ccc1[C@@H]1CCOc2cc(S(=O)(=O)Nc3ncccn3)ccc21,> 10
19,O=C1COCCN1c1cc(C(F)(F)F)ccc1[C@@H]1CCOc2cc(S(=O)(=O)Nc3ncccn3)ccc21,> 10
20,O=S(=O)(Nc1ccncn1)c1ccc2c(c1)OCC[C@H]2c1ccc(C(F)(F)F)cc1OC1CCOCC1,> 10

row,Structure (SMILES),IC50 [µM]
1,O=C(O)c1ccc(-c2cc(C(F)(F)F)ccc2[C@@H]2CCOc3cc(S(=O)(=O)Nc4ncc(F)cn4)ccc32)cc1,> 10
2,O=S(=O)(Nc1cccnn1)c1ccc2c(c1)OCC[C@@H]2c1ccc(C(F)(F)F)cc1-c1ccc(F)cn1,> 10
3,Cc1nc(-c2cc(C(F)(F)F)ccc2[C@H]2CCOc3cc(S(=O)(=O)Nc4ncc(F)cn4)ccc32)cs1,> 10
4,O=S(=O)(Nc1cccnn1)c1ccc2c(c1)OCC[C@H]2c1ccc(C(F)(F)F)cc1-c1ccc(F)cn1,> 10
5,O=S(=O)(Nc1ncccn1)c1ccc2c(c1)OCC[C@H]2c1ccc(C(F)(F)F)cc1OCCCF,> 10
6,COc1cc(C(F)(F)F)ccc1[C@H]1CCOc2cc(S(=O)(=O)Nc3ncccn3)ccc21,> 10
7,O=S(=O)(Nc1ncccn1)c1ccc2c(c1)OCC[C@H]2c1ccc(C(F)(F)F)cc1OC1COC1,> 10
8,O=C(O)c1ccc(-c2cc(C(F)(F)F)ccc2[C@H]2CCOc3cc(S(=O)(=O)Nc4ncccn4)ccc32)cc1,> 10
9,O=S(=O)(Nc1ncc(F)cn1)c1ccc2c(c1)OCC[C@H]2c1ccc(C(F)(F)F)cc1OC1CCOCC1,> 10
10,O=S(=O)(Nc1ncc(F)cn1)c1ccc2c(c1)OCC[C@H]2c1ccc(C(F)(F)F)cc1-c1nccs1,> 10
11,O=S1(=O)CCN(c2cc(C(F)(F)F)ccc2[C@H]2CCOc3cc(S(=O)(=O)Nc4ccncn4)ccc32)CC1 (racemic),> 10
12,O=S1(=O)CCN(c2cc(C(F)(F)F)ccc2[C@H]2CCOc3cc(S(=O)(=O)Nc4cccc(F)n4)ccc32)CC1 (racemic),> 10
13,O=S1(=O)CCN(c2cc(C(F)(F)F)ccc2[C@H]2CCOc3cc(S(=O)(=O)Nc4ncc(F)cn4)ccc32)CC1 (racemic),> 10
14,O=S1(=O)CCN(c2cc(C(F)(F)F)ccc2[C@H]2CCOc3cc(S(=O)(=O)Nc4cccnn4)ccc32)CC1 (racemic),> 10
15,O=S(=O)(Nc1ccncn1)c1ccc2c(c1)OCC[C@@H]2c1ccc(C(F)(F)F)cc1Cl (racemic),> 10
16,COCCc1cc(C(F)(F)F)ccc1[C@H]1CCOc2cc(S(=O)(=O)Nc3ccncn3)ccc21 (racemic),> 10
17,COCCc1cc(C(F)(F)F)ccc1[C@H]1CCOc2cc(S(=O)(=O)Nc3cccnn3)ccc21 (racemic),> 10
18,COCCOc1cc(C(F)(F)F)ccc1[C@H]1CCOc2cc(S(=O)(=O)Nc3ncc(F)cn3)ccc21 (racemic),> 10
19,O=C(O)c1ccc(-c2cc(C(F)(F)F)ccc2[C@H]2CCOc3cc(S(=O)(=O)Nc4cccc(F)n4)ccc32)cc1 (racemic),> 10
20,COCCc1cc(C(F)(F)F)ccc1[C@H]1CCOc2cc(S(=O)(=O)Nc3ncccn3)ccc21 (racemic),> 10

row,Structure (SMILES),IC50 [µM]
1,O=S(=O)(Nc1ncc(F)cn1)c1ccc2c(c1)OCC[C@@H]2c1ccc(C(F)(F)F)cc1CCF (racemic),> 10
2,O=C1OCCN1c1cc(C(F)(F)F)ccc1[C@H]1CCOc2cc(S(=O)(=O)Nc3ncc(F)cn3)ccc21 (racemic),> 10
3,O=C1CCCN1c1cc(C(F)(F)F)ccc1[C@H]1CCOc2cc(S(=O)(=O)Nc3cccnn3)ccc21 (racemic),> 10
4,O=C(O)c1ccc(-c2cc(C(F)(F)F)ccc2[C@H]2CCOc3cc(S(=O)(=O)Nc4cccnn4)ccc32)cc1 (racemic),> 10
5,COCCCOc1cc(C(F)(F)F)ccc1[C@H]1CCOc2cc(S(=O)(=O)Nc3ncc(F)cn3)ccc21 (racemic),> 10
6,COCCCCc1cc(C(F)(F)F)ccc1[C@H]1CCOc2cc(S(=O)(=O)Nc3ncc(F)cn3)ccc21 (racemic),> 10
7,O=S(=O)(Nc1ncc(F)cn1)c1ccc2c(c1)OCC[C@@H]2c1ccc(C(F)(F)F)cc1CCC(F)F (racemic),> 10
8,O=S(=O)(Nc1ncccn1)c1ccc2c(c1)OCC[C@@H]2c1ccc(C(F)(F)F)cc1Cl (racemic),> 10
9,O=C1OCCN1c1cc(C(F)(F)F)ccc1[C@H]1CCOc2cc(S(=O)(=O)Nc3ncccn3)ccc21 (racemic),> 10
10,O=C1CCCN1c1cc(C(F)(F)F)ccc1[C@H]1CCOc2cc(S(=O)(=O)Nc3ncccn3)ccc21 (racemic),> 10
11,O=S(=O)(Nc1ncc(F)cn1)c1ccc2c(c1)OCC[C@@H]2c1ccc(C(F)(F)F)cc1OC1COC1 (racemic),> 10
12,O=S(=O)(Nc1ccncn1)c1ccc2c(c1)OCC[C@@H]2c1ccc(C(F)(F)F)cc1CCF (racemic),> 10
13,O=C1OCCN1c1cc(C(F)(F)F)ccc1[C@H]1CCOc2cc(S(=O)(=O)Nc3cccc(F)n3)ccc21 (racemic),> 10
14,O=C1CCCN1c1cc(C(F)(F)F)ccc1[C@H]1CCOc2cc(S(=O)(=O)Nc3ccncn3)ccc21 (racemic),> 10
15,O=S(=O)(Nc1ncc(F)cn1)c1ccc2c(c1)OCC[C@@H]2c1ccc(C(F)(F)F)cc1Cl (racemic),> 10
16,COCCCc1cc(C(F)(F)F)ccc1[C@H]1CCOc2cc(S(=O)(=O)Nc3ncc(F)cn3)ccc21 (racemic),> 10
17,O=S(=O)(Nc1cccc(F)n1)c1ccc2c(c1)OCC[C@@H]2c1ccc(C(F)(F)F)cc1CCF (racemic),> 10
18,O=S(=O)(Nc1cccnn1)c1ccc2c(c1)OCC[C@@H]2c1ccc(C(F)(F)F)cc1Cl (racemic),> 10
